Measured values published in PubChem BioAssay AID1963846 (Molecular Pharmacology Branch, DTP, NCI, 2024).

System: 454973-116-R2-J3-PDC complex spheroid viability
Assay: Anticancer human tumor 454973-116-R2-J3-PDC patient-derived pancreatic carcinoma cell line growth inhibition [POLQ]
Conditions: for IC50: curve of first compound; for viability, T/C: stronger effect = lower value
Summary of the method: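 Growth inhibition in 3D: complex spheroids (tumor PDC, HUVEC, MSC) treated with POLQ inhibitor combinations; where Cmax unknown, highest tested concentration 10 microM, except SN-38 at 1 microM.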

[1] = second compound 0.0316 µM, first compound 0.0316 µM
[2] = second compound 0.0316 µM, first compound 0.1 µM
[3] = second compound 0.0316 µM, first compound 0.316 µM
[4] = second compound 0.0316 µM, first compound 1 µM
[5] = second compound 0.0316 µM, first compound 3.16 µM
[6] = second compound 0.0316 µM, first compound 10 µM
[7] = second compound 0.1 µM, first compound 0.0316 µM
[8] = second compound 0.1 µM, first compound 0.1 µM
[9] = second compound 0.1 µM, first compound 0.316 µM
[10] = second compound 0.1 µM, first compound 1 µM
[11] = second compound 0.1 µM, first compound 3.16 µM
[12] = second compound 0.1 µM, first compound 10 µM
[13] = second compound 0.316 µM, first compound 0.0316 µM
[14] = second compound 0.316 µM, first compound 0.1 µM
[15] = second compound 0.316 µM, first compound 0.316 µM
[16] = second compound 0.316 µM, first compound 1 µM
[17] = second compound 0.316 µM, first compound 3.16 µM
[18] = second compound 0.316 µM, first compound 10 µM
[19] = second compound 1 µM, first compound 0.0316 µM
[20] = second compound 1 µM, first compound 0.1 µM
[21] = second compound 1 µM, first compound 0.316 µM
[22] = second compound 1 µM, first compound 1 µM
[23] = second compound 1 µM, first compound 3.16 µM
[24] = second compound 1 µM, first compound 10 µM
[25] = second compound 3.16 µM, first compound 0.0316 µM
[26] = second compound 3.16 µM, first compound 0.1 µM
[27] = second compound 3.16 µM, first compound 0.316 µM
[28] = second compound 3.16 µM, first compound 1 µM
[29] = second compound 3.16 µM, first compound 3.16 µM
[30] = second compound 3.16 µM, first compound 10 µM
[31] = second compound 10 µM, first compound 0.0316 µM
[32] = second compound 10 µM, first compound 0.1 µM
[33] = second compound 10 µM, first compound 0.316 µM
[34] = second compound 10 µM, first compound 1 µM
[35] = second compound 10 µM, first compound 3.16 µM
[36] = second compound 10 µM, first compound 10 µM
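Also: spheroids exposed to drugs for seven days before measurement.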
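For viability, T/C in this document: percent viability relative to DMSO vehicle control wells taken as 100%.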

## C#Cc1c(F)ccc2cc(O)cc(-c3ncc4c(N5CC6CCC(C5)N6)nc(OCC56CCCN5CC(F)C6)nc4c3F)c12 (stereo not given) + COC1C(OC(N)=O)C(O)C(Oc2ccc3c(O)c(NC(=O)c4ccc(O)c(CC=C(C)C)c4)c(=O)oc3c2C)OC1(C)C
Second compound 0.0316 µM
  IC50: 0.108 µM
Second compound 0.1 µM
  IC50: 0.15 µM
Second compound 0.316 µM
  IC50: 0.127 µM
Second compound 1 µM
  IC50: 0.104 µM
Second compound 3.16 µM
  IC50: 0.131 µM
Second compound 10 µM
  IC50: 0.141 µM
[1]
  viability, T/C: 72.4%
[2]
  viability, T/C: 48.9%
[3]
  viability, T/C: 40%
[4]
  viability, T/C: 31.8%
[5]
  viability, T/C: 31.9%
[6]
  viability, T/C: 23.4%
[7]
  viability, T/C: 68.2%
[8]
  viability, T/C: 55.6%
[9]
  viability, T/C: 40.1%
[10]
  viability, T/C: 30.3%
[11]
  viability, T/C: 39.8%
[12]
  viability, T/C: 25.3%
[13]
  viability, T/C: 83.9%
[14]
  viability, T/C: 52.4%
[15]
  viability, T/C: 39.2%
[16]
  viability, T/C: 29.7%
[17]
  viability, T/C: 27.8%
[18]
  viability, T/C: 26.7%
[19]
  viability, T/C: 67.3%
[20]
  viability, T/C: 52.3%
[21]
  viability, T/C: 34.7%
[22]
  viability, T/C: 38.3%
[23]
  viability, T/C: 31.1%
[24]
  viability, T/C: 27.9%
[25]
  viability, T/C: 69.7%
[26]
  viability, T/C: 53.4%
[27]
  viability, T/C: 41%
[28]
  viability, T/C: 29.8%
[29]
  viability, T/C: 32.9%
[30]
  viability, T/C: 24.2%
[31]
  viability, T/C: 63%
[32]
  viability, T/C: 56.6%
[33]
  viability, T/C: 35%
[34]
  viability, T/C: 30.1%
[35]
  viability, T/C: 26.6%
[36]
  viability, T/C: 22.6%

## C=CC(=O)N1CCN(c2nc(=O)n(-c3c(C)ccnc3C(C)C)c3nc(-c4c(O)cccc4F)c(F)cc23)C(C)C1 (stereo not given) + COC1C(OC(N)=O)C(O)C(Oc2ccc3c(O)c(NC(=O)c4ccc(O)c(CC=C(C)C)c4)c(=O)oc3c2C)OC1(C)C
Second compound 0.0316 µM
  IC50: > 10 µM
Second compound 0.1 µM
  IC50: > 10 µM
Second compound 0.316 µM
  IC50: > 10 µM
Second compound 1 µM
  IC50: > 10 µM
Second compound 3.16 µM
  IC50: > 10 µM
Second compound 10 µM
  IC50: > 10 µM
[1]
  viability, T/C: 108%
[2]
  viability, T/C: 106%
[3]
  viability, T/C: 97.8%
[4]
  viability, T/C: 111%
[5]
  viability, T/C: 114%
[6]
  viability, T/C: 106%
[7]
  viability, T/C: 108%
[8]
  viability, T/C: 110%
[9]
  viability, T/C: 105%
[10]
  viability, T/C: 113%
[11]
  viability, T/C: 111%
[12]
  viability, T/C: 108%
[13]
  viability, T/C: 102%
[14]
  viability, T/C: 107%
[15]
  viability, T/C: 103%
[16]
  viability, T/C: 113%
[17]
  viability, T/C: 113%
[18]
  viability, T/C: 108%
[19]
  viability, T/C: 113%
[20]
  viability, T/C: 108%
[21]
  viability, T/C: 105%
[22]
  viability, T/C: 114%
[23]
  viability, T/C: 104%
[24]
  viability, T/C: 103%
[25]
  viability, T/C: 110%
[26]
  viability, T/C: 101%
[27]
  viability, T/C: 105%
[28]
  viability, T/C: 97.9%
[29]
  viability, T/C: 111%
[30]
  viability, T/C: 102%
[31]
  viability, T/C: 101%
[32]
  viability, T/C: 104%
[33]
  viability, T/C: 99.8%
[34]
  viability, T/C: 105%
[35]
  viability, T/C: 110%
[36]
  viability, T/C: 103%

## CCc1cc2c(N3CCc4c(cc(Cn5ccnc5)cc4-c4cn(C)nc4C(F)(F)F)C3=O)cc(C)nc2c(OC)n1 + COC1C(OC(N)=O)C(O)C(Oc2ccc3c(O)c(NC(=O)c4ccc(O)c(CC=C(C)C)c4)c(=O)oc3c2C)OC1(C)C
Second compound 0.0316 µM
  IC50: > 10 µM
Second compound 0.1 µM
  IC50: > 10 µM
Second compound 0.316 µM
  IC50: > 10 µM
Second compound 1 µM
  IC50: > 10 µM
Second compound 3.16 µM
  IC50: > 10 µM
Second compound 10 µM
  IC50: > 10 µM
[1]
  viability, T/C: 111%
[2]
  viability, T/C: 93.7%
[3]
  viability, T/C: 91.5%
[4]
  viability, T/C: 87.9%
[5]
  viability, T/C: 87.2%
[6]
  viability, T/C: 75.1%
[7]
  viability, T/C: 94.1%
[8]
  viability, T/C: 107%
[9]
  viability, T/C: 95.2%
[10]
  viability, T/C: 91.2%
[11]
  viability, T/C: 81%
[12]
  viability, T/C: 71%
[13]
  viability, T/C: 101%
[14]
  viability, T/C: 103%
[15]
  viability, T/C: 91.8%
[16]
  viability, T/C: 94.1%
[17]
  viability, T/C: 83.6%
[18]
  viability, T/C: 73.2%
[19]
  viability, T/C: 110%
[20]
  viability, T/C: 95%
[21]
  viability, T/C: 105%
[22]
  viability, T/C: 98%
[23]
  viability, T/C: 84.7%
[24]
  viability, T/C: 76.3%
[25]
  viability, T/C: 109%
[26]
  viability, T/C: 102%
[27]
  viability, T/C: 93.9%
[28]
  viability, T/C: 88.2%
[29]
  viability, T/C: 85.9%
[30]
  viability, T/C: 70.3%
[31]
  viability, T/C: 103%
[32]
  viability, T/C: 90.5%
[33]
  viability, T/C: 89.6%
[34]
  viability, T/C: 85.3%
[35]
  viability, T/C: 84%
[36]
  viability, T/C: 67.6%

## CCc1cc2c(N3CCc4c(cc(Cn5ccnc5)cc4-c4cn(C)nc4C(F)(F)F)C3=O)ccnc2c(OC)n1 + COC1C(OC(N)=O)C(O)C(Oc2ccc3c(O)c(NC(=O)c4ccc(O)c(CC=C(C)C)c4)c(=O)oc3c2C)OC1(C)C
Second compound 0.0316 µM
  IC50: > 10 µM
Second compound 0.1 µM
  IC50: > 10 µM
Second compound 0.316 µM
  IC50: > 10 µM
Second compound 1 µM
  IC50: > 10 µM
Second compound 3.16 µM
  IC50: > 10 µM
Second compound 10 µM
  IC50: > 10 µM
[1]
  viability, T/C: 109%
[2]
  viability, T/C: 107%
[3]
  viability, T/C: 96.7%
[4]
  viability, T/C: 86.4%
[5]
  viability, T/C: 90.8%
[6]
  viability, T/C: 72.8%
[7]
  viability, T/C: 101%
[8]
  viability, T/C: 96%
[9]
  viability, T/C: 96.8%
[10]
  viability, T/C: 96.8%
[11]
  viability, T/C: 91.5%
[12]
  viability, T/C: 81.5%
[13]
  viability, T/C: 99.8%
[14]
  viability, T/C: 104%
[15]
  viability, T/C: 96.5%
[16]
  viability, T/C: 96.4%
[17]
  viability, T/C: 88.8%
[18]
  viability, T/C: 82.1%
[19]
  viability, T/C: 112%
[20]
  viability, T/C: 104%
[21]
  viability, T/C: 99%
[22]
  viability, T/C: 93.7%
[23]
  viability, T/C: 85.8%
[24]
  viability, T/C: 76.6%
[25]
  viability, T/C: 107%
[26]
  viability, T/C: 102%
[27]
  viability, T/C: 97.8%
[28]
  viability, T/C: 86.8%
[29]
  viability, T/C: 82.4%
[30]
  viability, T/C: 72.2%
[31]
  viability, T/C: 113%
[32]
  viability, T/C: 99%
[33]
  viability, T/C: 96%
[34]
  viability, T/C: 86.5%
[35]
  viability, T/C: 84%
[36]
  viability, T/C: 72.9%

## O=C(Nc1ccc(O)c(NS(=O)(=O)c2ccc(F)cc2)c1)c1ccc(-c2ccccc2)cc1 + COC1C(OC(N)=O)C(O)C(Oc2ccc3c(O)c(NC(=O)c4ccc(O)c(CC=C(C)C)c4)c(=O)oc3c2C)OC1(C)C
Second compound 0.0316 µM
  IC50: > 10 µM
Second compound 0.1 µM
  IC50: > 10 µM
Second compound 0.316 µM
  IC50: > 10 µM
Second compound 1 µM
  IC50: > 10 µM
Second compound 3.16 µM
  IC50: > 10 µM
Second compound 10 µM
  IC50: > 10 µM
[1]
  viability, T/C: 93%
[2]
  viability, T/C: 107%
[3]
  viability, T/C: 98.8%
[4]
  viability, T/C: 112%
[5]
  viability, T/C: 112%
[6]
  viability, T/C: 105%
[7]
  viability, T/C: 101%
[8]
  viability, T/C: 119%
[9]
  viability, T/C: 103%
[10]
  viability, T/C: 124%
[11]
  viability, T/C: 106%
[12]
  viability, T/C: 105%
[13]
  viability, T/C: 101%
[14]
  viability, T/C: 110%
[15]
  viability, T/C: 112%
[16]
  viability, T/C: 116%
[17]
  viability, T/C: 113%
[18]
  viability, T/C: 103%
[19]
  viability, T/C: 109%
[20]
  viability, T/C: 104%
[21]
  viability, T/C: 108%
[22]
  viability, T/C: 117%
[23]
  viability, T/C: 109%
[24]
  viability, T/C: 98.4%
[25]
  viability, T/C: 113%
[26]
  viability, T/C: 115%
[27]
  viability, T/C: 107%
[28]
  viability, T/C: 106%
[29]
  viability, T/C: 118%
[30]
  viability, T/C: 94.2%
[31]
  viability, T/C: 108%
[32]
  viability, T/C: 92.1%
[33]
  viability, T/C: 93.4%
[34]
  viability, T/C: 104%
[35]
  viability, T/C: 102%
[36]
  viability, T/C: 85.6%
